Data from patent EP0606804B1, “Marker for neurotensin receptor” (MARTINEX R & D INC., priority 1992, dated 2001).
Where no end group is shown, it is not given here. FTC = fluorescein thiocarbamyl

What was measured:
Solubility = format: physicochemical; conditions: distilled water or aqueous buffer
Stability / shelf life = format: physicochemical; conditions: protected from light and maintained at 4°C
[1] = Toxicity (statement, no method given)
[2] = target: T1, neurotensin receptor on purified brain membranes from adult male mice (mouse, UniProt O88319 1-424); test: competition with 0.1 nM 125I-Tyr3-neurotensin on mouse brain membranes, filtration, 20 min at 22 C
T1 construct: whole, on cells; This is the native receptor in a brain membrane preparation, not on intact cells; also called mouse brain membranes
T1 sequence (O88319 whole entry): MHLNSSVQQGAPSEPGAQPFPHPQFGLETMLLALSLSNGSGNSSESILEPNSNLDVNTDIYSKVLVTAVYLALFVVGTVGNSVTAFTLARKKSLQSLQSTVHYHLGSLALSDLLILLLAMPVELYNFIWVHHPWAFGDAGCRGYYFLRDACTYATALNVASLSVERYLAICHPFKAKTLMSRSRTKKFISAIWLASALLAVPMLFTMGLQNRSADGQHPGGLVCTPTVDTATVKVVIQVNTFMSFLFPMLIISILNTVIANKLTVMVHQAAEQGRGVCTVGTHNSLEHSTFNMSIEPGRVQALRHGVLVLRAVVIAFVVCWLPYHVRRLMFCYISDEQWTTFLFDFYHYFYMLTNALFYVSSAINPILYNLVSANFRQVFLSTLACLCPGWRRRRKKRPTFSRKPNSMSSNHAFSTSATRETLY

Molecule	solubility (Solubility)	stability (Stability / shelf life)	toxicity [1]	IC50 [2]
CC[C@H](C)[C@H](NC(=O)[C@H](Cc1ccc(O)cc1)NC(=O)[C@@H]1CCCN1C(=O)[C@H](CCCNC(=N)N)NC(=O)[C@H](CCCNC(=N)N)NC(=O)[C@@H]1CCCN1C(=O)[C@H](CCCCN)NC(=O)[C@H](CC(N)=O)NC(=O)[C@H](CCC(=O)O)NC(=O)[C@H](Cc1ccc(O)cc1)NC(=O)[C@H](CC(C)C)NC(=O)[C@H](CCC(=O)O)NC(=S)Nc1ccc2c(c1)C(=O)OC21c2ccc(O)cc2Oc2cc(O)ccc21)C(=O)N[C@@H](CC(C)C)C(=O)O [N-FTC-[Glu^1]NT, N-fluoresceyl thiocarbamyl-[Glu^1] neurotensin]	freely soluble	stable	100% non-toxic	
{FTC}-ELYENKPRRPYIL (Synthetic 13-residue neurotensin analogue with Glu in place of pGlu at position 1, carrying one fluorescein per peptide; Molecular weight 2080; also called N-FTC-[Glu1]NT; FTC-[Glu1]NT) [N-fluoresceyl thiocarbamyl-[Glu1] neurotensin]				0.55 nM
